In patent US20210267944A1 (BioXcel Therapeutics, Inc., priority 2018, published 2021):
Structures can show the parent of a compound that is named as a salt. Where two headings read alike, the source gives them in different places.

Conditions: for Diastolic blood pressure Mean ± SD / Diastolic blood pressure Median / Diastolic blood pressure Min / Heart rate Max / Heart rate Mean ± SD / Heart rate Median / Heart rate Min / Diastolic blood pressure Max / Systolic blood pressure, Max / Systolic blood pressure, Mean ± SD / Systolic blood pressure, Median / Systolic blood pressure, Min: opioid withdrawal patients
Excerpt: The participants were continuously monitored by the site personnel, including blood pressure and heart rate, from the start of the infusion through resolution of sedation and/or any adverse effects on blood pressure or heart rate. An electrocardiogram was obtained at screening, pre-infusion and upon resolution of sedation, a predetermined reduction in COWS or return to baseline.

[1] = Day-1, 30 min. post Infusion, n=11
[2] = Day-2, 30 min. post Infusion, n=5
[3] = opioid withdrawal, during infusion

SMILES: Cc1cccc([C@H](C)c2cnc[nH]2)c1C [dexmedetomidine hydrochloride]
- Diastolic blood pressure Mean ± SD (Day-2, 01:15 Hr): 78.5 ± 22.5 mm of Hg
- Diastolic blood pressure Median (Day-2, 01:15 Hr): 78.5 mm of Hg
- Diastolic blood pressure Min (Day-2, 01:15 Hr): 56 mm of Hg
- Heart rate Max (Day-2, 01:15 Hr): 100 beats/minutes
- Heart rate Mean ± SD (Day-2, 01:15 Hr): 88 ± 12 beats/minutes
- Heart rate Median (Day-2, 01:15 Hr): 88 beats/minutes
- Heart rate Min (Day-2, 01:15 Hr): 76 beats/minutes
- Diastolic blood pressure Max (Day-2, 01:30 Hr): 75 mm of Hg
- Diastolic blood pressure Mean ± SD (Day-2, 01:30 Hr): 75 mm of Hg
- Diastolic blood pressure Median (Day-2, 01:30 Hr): 75 mm of Hg
- Diastolic blood pressure Min (Day-2, 01:30 Hr): 75 mm of Hg
- Heart rate Max (Day-2, 01:30 Hr): 73 beats/minutes
- Heart rate Mean ± SD (Day-2, 01:30 Hr): 73 beats/minutes
- Heart rate Median (Day-2, 01:30 Hr): 73 beats/minutes
- Heart rate Min (Day-2, 01:30 Hr): 73 beats/minutes
- Diastolic blood pressure Max (Day-2, 01:45 Hr): 89 mm of Hg
- Diastolic blood pressure Mean ± SD (Day-2, 01:45 Hr): 89 mm of Hg
- Diastolic blood pressure Median (Day-2, 01:45 Hr): 89 mm of Hg
- Diastolic blood pressure Min (Day-2, 01:45 Hr): 89 mm of Hg
- Heart rate Max (Day-2, 01:45 Hr): 92 beats/minutes
- Heart rate Mean ± SD (Day-2, 01:45 Hr): 92 beats/minutes
- Heart rate Median (Day-2, 01:45 Hr): 92 beats/minutes
- Heart rate Min (Day-2, 01:45 Hr): 92 beats/minutes
- Diastolic blood pressure Max (Day-2, 02:00 Hr): 90 mm of Hg
- Diastolic blood pressure Mean ± SD (Day-2, 02:00 Hr): 90 mm of Hg
- Diastolic blood pressure Median (Day-2, 02:00 Hr): 90 mm of Hg
- Diastolic blood pressure Min (Day-2, 02:00 Hr): 90 mm of Hg
- Heart rate Max (Day-2, 02:00 Hr): 94 beats/minutes
- Heart rate Mean ± SD (Day-2, 02:00 Hr): 94 beats/minutes
- Heart rate Median (Day-2, 02:00 Hr): 94 beats/minutes
- Heart rate Min (Day-2, 02:00 Hr): 94 beats/minutes
- Diastolic blood pressure Max (Day-2, 30 min. post Infusion): 98 mm of Hg
- Diastolic blood pressure Mean ± SD (Day-2, 30 min. post Infusion): 84.4 ± 9.24 mm of Hg
- Diastolic blood pressure Median (Day-2, 30 min. post Infusion): 86 mm of Hg
- Diastolic blood pressure Min (Day-2, 30 min. post Infusion): 70 mm of Hg
- Heart rate Max (Day-2, 30 min. post Infusion): 90 beats/minutes
- Heart rate Mean ± SD (Day-2, 30 min. post Infusion): 70.8 ± 15.72 beats/minutes
- Heart rate Median (Day-2, 30 min. post Infusion): 60 beats/minutes
- Heart rate Min (Day-2, 30 min. post Infusion): 56 beats/minutes
- all the vital signs values (opioid withdrawal): within clinically acceptable limits
- Systolic blood pressure, Max (Day-1, 00:00 Hr, n=11): 178 mm of Hg
- Systolic blood pressure, Mean ± SD (Day-1, 00:00 Hr, n=11): 134 ± 15.77 mm of Hg
- Systolic blood pressure, Median (Day-1, 00:00 Hr, n=11): 127 mm of Hg
- Systolic blood pressure, Min (Day-1, 00:00 Hr, n=11): 120 mm of Hg
- Systolic blood pressure, Max (Day-1, 00:15 Hr, n=11): 157 mm of Hg
- Systolic blood pressure, Mean ± SD (Day-1, 00:15 Hr, n=11): 129.73 ± 13.68 mm of Hg
- Systolic blood pressure, Median (Day-1, 00:15 Hr, n=11): 127 mm of Hg
- Systolic blood pressure, Min (Day-1, 00:15 Hr, n=11): 112 mm of Hg
- Systolic blood pressure, Max (Day-1, 00:30 Hr, n=9): 160 mm of Hg
- Systolic blood pressure, Mean ± SD (Day-1, 00:30 Hr, n=9): 124.78 ± 15.55 mm of Hg
- Systolic blood pressure, Median (Day-1, 00:30 Hr, n=9): 128 mm of Hg
- Systolic blood pressure, Min (Day-1, 00:30 Hr, n=9): 107 mm of Hg
- Systolic blood pressure, Max (Day-1, 00:45 Hr, n=6): 125 mm of Hg
- Systolic blood pressure, Mean ± SD (Day-1, 00:45 Hr, n=6): 113 ± 8.24 mm of Hg
- Systolic blood pressure, Median (Day-1, 00:45 Hr, n=6): 114 mm of Hg
- Systolic blood pressure, Min (Day-1, 00:45 Hr, n=6): 100 mm of Hg
- Systolic blood pressure, Max (Day-1, 01:00 Hr, n=5): 120 mm of Hg
- Systolic blood pressure, Mean ± SD (Day-1, 01:00 Hr, n=5): 114 ± 4.85 mm of Hg
- Systolic blood pressure, Median (Day-1, 01:00 Hr, n=5): 115 mm of Hg
- Systolic blood pressure, Min (Day-1, 01:00 Hr, n=5): 107 mm of Hg
- Systolic blood pressure, Max (Day-1, 01:15 Hr, n=3): 112 mm of Hg
- Systolic blood pressure, Mean ± SD (Day-1, 01:15 Hr, n=3): 110 ± 1.63 mm of Hg
- Systolic blood pressure, Median (Day-1, 01:15 Hr, n=3): 110 mm of Hg
- Systolic blood pressure, Min (Day-1, 01:15 Hr, n=3): 108 mm of Hg
- Systolic blood pressure, Max (Day-1, 01:30 Hr, n=2): 112 mm of Hg
- Systolic blood pressure, Mean ± SD (Day-1, 01:30 Hr, n=2): 106.5 ± 5.5 mm of Hg
- Systolic blood pressure, Median (Day-1, 01:30 Hr, n=2): 106.5 mm of Hg
- Systolic blood pressure, Min (Day-1, 01:30 Hr, n=2): 101 mm of Hg
- Systolic blood pressure, Max [1]: 160 mm of Hg
- Systolic blood pressure, Mean ± SD [1]: 130.91 ± 18.09 mm of Hg
- Systolic blood pressure, Median [1]: 129 mm of Hg
- Systolic blood pressure, Min [1]: 108 mm of Hg
- Systolic blood pressure, Max (Day-1, Screening, n=11): 170 mm of Hg
- Systolic blood pressure, Mean ± SD (Day-1, Screening, n=11): 130.36 ± 16.92 mm of Hg
- Systolic blood pressure, Median (Day-1, Screening, n=11): 127 mm of Hg
- Systolic blood pressure, Min (Day-1, Screening, n=11): 110 mm of Hg
- Systolic blood pressure, Max (Day-2, 00:00 Hr, n=5): 141 mm of Hg
- Systolic blood pressure, Mean ± SD (Day-2, 00:00 Hr, n=5): 127.2 ± 11.37 mm of Hg
- Systolic blood pressure, Median (Day-2, 00:00 Hr, n=5): 133 mm of Hg
- Systolic blood pressure, Min (Day-2, 00:00 Hr, n=5): 109 mm of Hg
- Systolic blood pressure, Max (Day-2, 00:15 Hr, n=5): 139 mm of Hg
- Systolic blood pressure, Mean ± SD (Day-2, 00:15 Hr, n=5): 123.6 ± 13.41 mm of Hg
- Systolic blood pressure, Median (Day-2, 00:15 Hr, n=5): 131 mm of Hg
- Systolic blood pressure, Min (Day-2, 00:15 Hr, n=5): 103 mm of Hg
- Systolic blood pressure, Max (Day-2, 00:30 Hr, n=5): 137 mm of Hg
- Systolic blood pressure, Mean ± SD (Day-2, 00:30 Hr, n=5): 121.6 ± 12.15 mm of Hg
- Systolic blood pressure, Median (Day-2, 00:30 Hr, n=5): 125 mm of Hg
- Systolic blood pressure, Min (Day-2, 00:30 Hr, n=5): 106 mm of Hg
- Systolic blood pressure, Max (Day-2, 00:45 Hr, n=4): 131 mm of Hg
- Systolic blood pressure, Mean ± SD (Day-2, 00:45 Hr, n=4): 123.15 ± 9.17 mm of Hg
- Systolic blood pressure, Median (Day-2, 00:45 Hr, n=4): 128 mm of Hg
- Systolic blood pressure, Min (Day-2, 00:45 Hr, n=4): 108 mm of Hg
- Systolic blood pressure, Max (Day-2, 01:00 Hr, n=3): 132 mm of Hg
- Systolic blood pressure, Mean ± SD (Day-2, 01:00 Hr, n=3): 124.33 ± 9.46 mm of Hg
- Systolic blood pressure, Median (Day-2, 01:00 Hr, n=3): 130 mm of Hg
- Systolic blood pressure, Min (Day-2, 01:00 Hr, n=3): 111 mm of Hg
- Systolic blood pressure, Max (Day-2, 01:15 Hr, n=2): 130 mm of Hg
- Systolic blood pressure, Mean ± SD (Day-2, 01:15 Hr, n=2): 115.5 ± 14.5 mm of Hg
- Systolic blood pressure, Median (Day-2, 01:15 Hr, n=2): 115.5 mm of Hg
- Systolic blood pressure, Min (Day-2, 01:15 Hr, n=2): 101 mm of Hg
- Systolic blood pressure, Mean ± SD (Day-2, 01:30 Hr, n=1): 114 mm of Hg
- Systolic blood pressure, Median (Day-2, 01:30 Hr, n=1): 114 mm of Hg
- Systolic blood pressure, Mean ± SD (Day-2, 01:45 Hr, n=1): 112 mm of Hg
- Systolic blood pressure, Median (Day-2, 01:45 Hr, n=1): 112 mm of Hg
- Systolic blood pressure, Mean ± SD (Day-2, 02:00 Hr, n=1): 114 mm of Hg
- Systolic blood pressure, Median (Day-2, 02:00 Hr, n=1): 114 mm of Hg
- Systolic blood pressure, Max [2]: 146 mm of Hg
- Systolic blood pressure, Mean ± SD [2]: 127.6 ± 13.1 mm of Hg
- Systolic blood pressure, Median [2]: 130 mm of Hg
- Systolic blood pressure, Min [2]: 110 mm of Hg
- Diastolic blood pressure mean values, in words [3]: within clinically acceptable limits
- Heart rate mean values, in words [3]: within clinically acceptable limits
- Systolic blood pressure mean values, in words [3]: within clinically acceptable limits
- heart rate at which stopping criteria was met (opioid withdrawal, one patient, after 15 minutes): ≤ 50
